Laboratory results reported in patent publication US20240197729A1, “ALK-5 Inhibitors and Uses Thereof” (Sumitomo Pharma Oncology, Inc., priority 2021, published 2024).

What was measured:
[1] = test system: JAK signaling; assay: JAK selectivity assay, HEK blue IL-12 reporter; type: cell-based; conditions: HEK-Blue, 24 h, 12.5 ng/ml IL-12, 24 h
Description: The cells were purchased from Invivogen (Catalog Nr: hkb-il12) and maintained according to vendor instructions. On the day of the experiment, cells were harvested by repeated tapping of the flask to shake loose the cells attached to the bottom of the flask. Then, cells were harvested, washed and resuspended in DMEM media supplemented with 10% fetal calf serum. 30 Microliters of cell suspension was seeded into a 384-well tissue culture-coated plate containing approximately 10,000 total cells. […] Using the ECHO “Dose Response” software, the test compound was added in duplicate wells with a 3-fold dilution curve. DMSO was back-filled to normalize the DMSO across all wells. […] After 30 minutes of incubation at room temperature, the optical density was measured at 620 nanometer using the Perkin Elmer Envision plate reader. A color change can be detected at this wavelength when secreted alkaline phosphatase, which is triggered by IL-12 signaling, is present in the supernatant. […]

[2] = target: T1, ALK5 (Homo sapiens, UniProt P36897); assay: LanthaScreen Eu Kinase Binding Assay, ALK5; conditions: 10-point titration, read-out: Kinase Inhibition: ALK5 IC50 (Lantha)
T1 sequence (P36897 34-503): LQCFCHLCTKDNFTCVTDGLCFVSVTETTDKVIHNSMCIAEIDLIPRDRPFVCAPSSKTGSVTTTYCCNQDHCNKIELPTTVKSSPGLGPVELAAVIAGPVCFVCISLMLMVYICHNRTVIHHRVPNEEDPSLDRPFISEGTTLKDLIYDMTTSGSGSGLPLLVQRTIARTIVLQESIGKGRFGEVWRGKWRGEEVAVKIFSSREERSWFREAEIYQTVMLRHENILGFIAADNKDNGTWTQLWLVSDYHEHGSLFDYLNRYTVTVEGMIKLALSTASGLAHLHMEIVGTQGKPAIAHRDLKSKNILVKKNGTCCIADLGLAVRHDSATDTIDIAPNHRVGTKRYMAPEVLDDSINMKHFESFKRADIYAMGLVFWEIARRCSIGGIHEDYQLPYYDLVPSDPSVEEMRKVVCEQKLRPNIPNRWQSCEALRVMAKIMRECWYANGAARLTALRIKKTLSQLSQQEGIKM
Description: Selected compounds of the present disclosure were assayed for inhibitory activity against ALK5 and ALK2. Activity determinations and selectivity were conducted by Thermo Fisher Scientific SelectScreen™ Biochemical Kinase Profiling Service using their LanthaScreen™ Eu Kinase Binding Assay Screening.
Binding of an Alexa Fluor™ conjugate or “tracer” to a kinase is detected by addition of a Eu-labeled anti-tag antibody. Binding of the tracer and antibody to a kinase results in a high degree of FRET, whereas displacement of the tracer with a kinase inhibitor results in a loss of FRET. This assay is carried out by mixing the compound tested with the reagents and reading; no development step is required.
Life Technologies' Kinase Tracers are based on ATP-competitive kinase inhibitors, making them suitable for detection of any compounds that bind to the ATP site. Inhibitors that bind the ATP site include both Type I kinase inhibitors, which bind solely to the ATP site, and Type II inhibitors (e.g., Gleevec®/Imatinib, Sorafenib, BIRB-796), which bind to both the ATP site and a second site often referred to as the allosteric site.
The test compounds were screened in 1% DMSO (final) in the well. For 10-point titrations, 3-fold serial dilutions were conducted from the starting concentration (see Table 2 below).
All Kinase/Antibody Mixtures were diluted to a 2× working concentration in the specified kinase buffer. The 4× AlexaFluor labeled Tracer was prepared in Kinase Buffer.
• Bar-coded, low volume, white, 384-well plate (Greiner Cat. #784207) • 1. 160 nL—100× Test Compound in 100% DMSO • 2. 3.84 μL—Kinase Buffer • 3. 8.0 μL—2× Kinase/Antibody Mixture • 4. 4.0 μL—4× Tracer • 5. 30-second plate shake • 6. 60-minute incubation at room temperature • 7. Read on fluorescence plate reader and analysis of the data
The following controls were made for each individual kinase and were located on the same plate as the kinase:
100% Displacement Control: The minimum Emission Ratio was established by the 100% Displacement Control wells, which contained the highest concentration of the known inhibitor used in that assay.
Known Inhibitor: A known inhibitor control standard curve, 10-point titration, was run for each individual kinase on the same plate as the kinase to ensure the inhibitor was displaced within an expected IC50 range previously determined.
The following equations were used for each set of data points: […]
Data generated were plotted using the graphing software XLfit from IDBS. The dose response curve was curve fit to model number 205.

[3] = test system: TGF-β1-induced SMAD signaling pathway; assay: RD SMAD reporter (RDSR) assay; type: cell-based; conditions: Homo sapiens; 200 pg/ml rhTGF-beta1, 24 h
Text: TGF-beta (also referred to as TGF-β1) is a multifunctional, highly conserved cytokine with many key functions in development, cell growth and apoptosis, and plays a key role in the tissue repair response and functions as a potent immune modulator. TGF-β signaling is triggered when the activated TGF-β homodimer binds to the TGF-β receptor 2, which in turn leads to the recruitment and phosphorylation of TGF-β receptor 1 (ALK5). Activated TGF-β receptor 1 phosphorylates the signal transduction molecules SMAD2 and SMAD3. These bind to common mediator SMAD4 and translocate to the nucleus where they bind to short conserved DNA sequences called the SMAD binding element and induce the transcription of various target genes.
A stable cellular reporter, the RD SMAD reporter (RDSR), was generated to test the ability of certain compounds disclosed herein to inhibit the canonical TGF-β1-induced SMAD signaling pathway in a cellular context. The RD SMAD reporter (RDSR) cell line was generated by stably integrating the SMAD cellular reporter plasmid (Promega, pGL4.48[luc2P/SBE/Hygro]) into the human rhabdomyosarcoma cell line RD (ATCC, CCL-136). Once SMAD signaling was triggered with, for example, the addition of TGF-beta1, receptor-activated SMADs bind the SMAD binding elements (SBEs) leading to the expression of intracellular luciferase.
The rhabdomyosarcoma line RD (ATCC, CCL-136) was transfected with a SMAD reporter vector (Promega, E3671) and a polyclonal stable cell line was selected using hygromycin B. The transfected vector contained three copies of a Smad-binding element (SBE) that drives transcription of the luciferase reporter gene luc2P (Photinus pyralis). luc2P is a synthetically-derived luciferase sequence with humanized codon optimization that is designed for high expression and reduced anomalous transcription. The luc2P gene contains hPEST, a protein destabilization sequence, which allows luc2P protein levels to respond more quickly than those of luc2 to induction of transcription. The intracellular luciferase is quantified by the addition of equal volume (100 μl) of ONE-GLO substrate (Promega, E6120) and read within ten minutes on the Envision plate reader. The stable RDSR cell line was tested by evaluating the response to human TGF-beta1 (R&D Systems, 7754-BH-005) as well as myostatin (R&D Systems, 788-G8-010/CF) in a concentration-dependent manner after twenty-four hours of stimulation. […] For compound evaluation, the tool compounds (vactosertib and PF-06952229 (a TGFβR1 inhibitor available from MedChem Express HY-136244) were included as positive controls) or test compounds were incubated with cells for one hour at 37° C. then stimulated with 200 pg/ml rhTGF-beta1 for twenty-four hours. The activity of the reporter was determined with the addition of ONE-GLO (Promega) substrate, and luminescence counts were collected on the Envision plate reader (Perkin Elmer). The IC50 or EC50 was calculated using nonlinear regression curve fitting with graph pad prism software.
A comparative RDSR analysis was performed using IC50 values for selected compounds and standards obtained using the RDSR assay protocol described in Example 3.
The tool compounds vactosertib (an ALK5 inhibitor sourced from MedChem Express, HY-19928) and PF-06952229 (a TGFβR1 inhibitor) were included in the study as comparator compounds. Selected example compounds or comparator compounds were incubated with cells for one hour at 37° C. then stimulated with 200 pg/ml rhTGF-beta1 for twenty-four hours. The activity of the reporter was determined by adding ONE-GLO (Promega) substrate, and collecting luminescence counts on the Envision plate reader (Perkin Elmer).
Each of the example compounds and comparator compounds were tested at drug concentrations of from 20 micromolar to 1 nanomolar, and the IC50 value for each was calculated using Graph Pad Prism software. DMSO was used as a negative control and all wells contained normalized DMSO concentrations. […]

[4] = test system: A549 lung fibroblasts; assay: Epithelial to mesenchymal transition gene expression in A549; type: cell-based; conditions: 5 ng/ml TGF-beta1, 48 h, up to 5 micromolar
Description: To evaluate whether Compounds 01 and 04 could inhibit epithelial to mesenchymal transition (EMT), an in vitro model using A549 lung fibroblasts was utilized. A549 cells were purchased from ATCC (CCL-185), and grown in RPMI media supplemented with 10 percent fetal bovine serum (FBS). On the day of the experiment, ten thousand A549 cells were seeded in eighty microliters total volume into a flat, tissue culture coated, ninety-six-well plate. Drugs, including positive control compounds vactosertib, PF-06952229 and LY3200882, were added in an eight point, one to three dilution series with the highest concentration of each drug being five micromolar, bringing the total volume of each well to ninety microliters. DMSO, which served to dissolve the 10 millimolar stock solution of each drug, was normalized across all wells After one hour of drug pretreatment, recombinant human TGF-beta1 was added to a final concentration of five nanograms per milliliter, bringing the volume to one hundred microliters. Recombinant human TGF-beta 1 was purchased from R&D Systems (7754-BH-005) and its stock solution was prepared according to manufacturer's instructions and diluted in RPMI media supplemented with 10% FBS. The ninety-six well plate with one hundred microliter volume was incubated at 37° C. at 5% CO2 for forty-eight hours. At the end of the incubation period, gene expression levels of various EMT markers were assessed using a custom designed QuantiGene Plex Gene Expression Assay. The genes chosen were CDH1 (E-cadherin), CDH2 (N-Cadherin), SNAI1 (Snail), SNAI2 (Slug), VIM (Vimentin), SPARC, GALNT6, CTNNB1 (beta-catenin), TGFB1, and MAML3.
Briefly, cell lysate was prepared using the QuantiGene Sample Processing Kit —Cultured Cells (QS0100) in the ninety-six well plate. Cell lysates were then subjected to bead hybridization, multiple probe hybridization steps and SAPE labeling following manufacturer's instruction. The plate was read on a Luminex MAGPIX instrument.

Compound	IC50 [1]	IC50 [2]	EC50 [3]	CDH1 (E-Cadherin) gene expression [4]	expression of the nine genes induced with EMT (CDH2, SNAI1, SNAI2, VIM, SPARC, GALNT6, CTNNB1, TGFB1, MAML3) [4]
Cc1cnc(Nc2ccc(OCCN3CCCC3)cc2)nc1Nc1cccc(S(=O)(=O)NC(C)(C)C)c1 [Fedratinib, fedratinib]	< 300 nM				
Cc1cccc2c(Nc3ccnc(Nc4cccc(C5CCOCC5)c4)c3)cnnc12 [Compound 07, N4-(8-methylcinnolin-4-yl)-N2-[3-(oxan-4-yl)phenyl]pyridine-2,4-diamine]		2 to 5 nM	50 to 100 nM		
Cc1cccc2c(Nc3ccnc(Nc4cccc(N5CCOCC5)c4)c3)cnnc12 [Compound 03, N4-(8-methylcinnolin-4-yl)-N2-[3-(morpholin-4-yl)phenyl]pyridine-2,4-diamine]		2 to 5 nM	< 50 nM		
CC(C)(O)c1cc(Nc2cc(Oc3cn(C4CC4)nc3C3CCOCC3)ccn2)ccn1 [LY3200882, reference compound]				inhibition of downregulation of CDH1 (E-Cadherin)	inhibition of induction of the nine genes that are induced with EMT
Cc1cccc2c(Nc3ccnc(Nc4ccc(C5CCOCC5)cc4)c3)cnnc12 [Compound 08, N4-(8-methylcinnolin-4-yl)-N2-[4-(oxan-4-yl)phenyl]pyridine-2,4-diamine]		2 to 5 nM	< 50 nM		
Cc1nn(CC(F)(F)F)cc1Nc1cc(Nc2cnnc3c(Cl)cccc23)ccn1 [Compound 02, N2-[3-methyl-1-(2,2,2-trifluoroethyl)-1H-pyrazol-4-yl]-N4-(8-chlorocinnolin-4-yl)pyridine-2,4-diamine]		< 5 nM	50 to 100 nM		
CC(C)c1cnc(-c2cc(Cl)ccc2F)cc1Nc1ccncc1C(=O)NC(CO)CO [PF-06952229, reference compound]				inhibition of downregulation of CDH1 (E-Cadherin)	inhibition of induction of the nine genes that are induced with EMT
Cc1cccc2c(Nc3ccnc(Nc4ccc(N5CCN(C)CC5)cc4)c3)cnnc12 [Compound 06, N4-(8-methylcinnolin-4-yl)-N2-[4-(4-methylpiperazin-1-yl)phenyl]pyridine-2,4-diamine]		2 to 5 nM	< 50 nM		
